Measured values from patent US20120322726A1, “THERAPEUTIC AGENT FOR EATING DISORDERS” (MORINAGA MILK INDUSTRY CO., LTD., priority 2010, published 2012).

Assays:
KK-Ay mice [1] = assay: Test Example 3: amount of livestock feed taken by hyperphagia model mice; type: in vivo
Procedure: The object of this test was to confirm that the casein hydrolysate according to the present invention has a therapeutic effect against the hyperphagia.
The product according to the present invention: The casein hydrolysate according to the present invention, prepared by the method described in EXAMPLE 1, was diluted with the distilled water so that the concentration of the hydrolysate would be 5 mg/ml.
The precipitate fraction: Sample 2 in the Test Example 1 was diluted with the distilled water into 5 mg/ml.
Whole casein hydrolysate: The rennet casein (Fonterra Co-operative Group Limited, protein content 80%) used in EXAMPLE 1 was digested with pepsin in the same way as in EXAMPLE 1, and then, without centrifuging, diluted with the distilled water for injection so that the concentration of the hydrolysate would be 5 mg/ml.
GMP (glycol-macropeptide): A commercially available GMP (MG Nutritionals) was diluted with the distilled water for injection so that the concentration of GMP would be 5 mg/ml. […]
After pre-feeding with said livestock feed for 10 days, test animals were divided into 8 groups each including 8 animals so that they would have the nearly equal body weight and take the nearly equal amount of livestock feed. […] The amount of livestock feed taken by the animal was determined once a week. […]

KK-Ay mice [2] = assay: Test Example 4: blood glucose level of hyperphagia model mice; type: in vivo
Text: The object of this test was to confirm that the casein hydrolysate according to the present invention has an effect of decreasing the blood glucose level of the patient with hyperphagia.
The same one as in EXAMPLE 3 was used.
A commercially available livestock feed containing no protein from milk (Nihon Nosan, trade name: MR Stock) was used. As drinking water, tap water (city water) was used.
As animal model for hyperphagia, KK-Ay mice (male, 5 weeks old, CLEA Japan, Inc.) were used.
After pre-feeding with said livestock feed for 10 days, test animals were divided into 8 groups each including 8 animals so that they would have the nearly equal body weight and take the nearly equal amount of livestock feed. The animals of each group could take the livestock feed and water freely. During 5 days of one week, 0.5 ml of the sample was administered to each animal per day using a sonde. The test was performed for 5 weeks. The blood glucose level was determined once a week, using a glucose kit for self checking (Johnson & Johnson).
Relative blood glucose level is an average blood glucose level of each group when the average blood glucose level of the control group is considered 1.

[3] = 5 mg/ml, 0.5 ml per day, 5 weeks after starting of administration

κ-casein: commercially available κ-casein (Sigma)
change of amount of livestock feed taken compared to the control (KK-Ay mice [1]; [3]): wasn't a significant effect
Relative amount of livestock feed ingested 5 weeks later (KK-Ay mice [1]; 0.5 ml of 5 mg/ml sample per day by sonde, 5 days of one week, 5 weeks, control group = 1, * p < 0.05): 0.990
change of blood glucose level compared to the control (KK-Ay mice [2]; [3]): wasn't a significant effect
Relative blood glucose level 5 weeks later (KK-Ay mice [2]; Table 3 (text: relative blood glucose level), 0.5 ml of 5 mg/ml sample per day, 5 days of one week, 5 weeks, control group = 1, * p < 0.05): 0.934
